From patent US9499508B2, “2-pyrones” (MERCK PATENT GMBH, priority 2010, dated 2016)

Columns and labels:
normal human adipocytes = assay: Lipolysis, unesterified fatty acids liberated from adipocytes; assay type: cell-based; settings: 2 hours; for lipolytic activity, dependence on concentration: 0.25 mM, 0.5 mM, 1 mM and 2 mM
Procedure: The study is carried out using normal human adipocytes originating from the lower abdomen biopsy of a person. The hypodermis is isolated from the biopsy and incubated at 37° C. for 30 minutes with collagenase solution. The separated adipocytes are washed and diluted with assay medium (MEM without Phenol Red, penicillin 25 UI/ml/streptomycin […], L-glutamine 2 mM, bovine serum albumin (BSA), fatty acid-free: 0.5% (p/v)).
The test solutions or the caffeine reference are added to the cell suspensions, and the mixtures are incubated at 37° C. and in a 5% CO2 atmosphere for 2 hours.
After this time, the unesterified fatty acids liberated from the samples are quantified. The measurement is carried out using a Wako NEFA-C test kit in accordance with the instruction manual.

[1] = tested on: calmodulin-like protein (CALML5); assay: cDNA array, gene expression of CALML5; assay type: cell-based; settings: primary epidermal keratinocytes, 24 hours
Procedure: (§1) The assay is carried out using primary epidermal keratinocytes. […] All-trans retinoic acid is used as positive control. The cells are then cultured at 37° C. and under 5% CO2 for 24 hours.
(§2) The mRNA is isolated using the RNEASY Minikit test kit from Qiagen in accordance with the instruction manual. 1 μg of the RNA is then in each case converted into cDNA with the aid of the Firsts Strand cDNA synthesis kit from Roche. The 20 μl of cDNA obtained are diluted 1/10, and 110 μl of TaqMan™ Universal PCR Master Mix are in each case added to 110 μl of the cDNA samples. 100 μl are pipetted per slot into the Custom TaqMan™ array cards. The cards are sealed, centrifuged and then measured using the TaqMan™ 7900HT. The values obtained are standardised. Values less than or equal to −1.5 indicate moderate to strong downregulation of the expression of the genes investigated.

filaggrin (FLG) = assay: cDNA array, gene expression of FLG; assay type: cell-based; settings: primary epidermal keratinocytes, 24 hours
Procedure: (§3) The assay is carried out using primary epidermal keratinocytes. After incubation at 37° C. and in a 5% CO2 atmosphere for 48 hours, the culture medium (DPBS and HyQtase cell detachment solution) is removed, and the test substances 4-hydroxy-6-methyl-2-pyrone Ia (40 μM) and 3-((E)-3,7-dimethylocta-2,6-dienyl)-4-hydroxy-6-methyl-2-pyrone Ii ([…]) in assay medium (keratinocytes basal medium M2 and supplement mix) are added. All-trans retinoic acid is used as positive control. The cells are then cultured at 37° C. and under 5% CO2 for 24 hours.
as §2

involucrin (IVL) = assay: cDNA array, gene expression of IVL; assay type: cell-based; settings: primary epidermal keratinocytes, 24 hours
Procedure: as §1, §2

loricrin (LOR) = assay: cDNA array, gene expression of LOR; assay type: cell-based; settings: primary epidermal keratinocytes, 24 hours
Procedure: as §1, §2

repetin (RPTN) = assay: cDNA array, gene expression of RPTN; assay type: cell-based; settings: primary epidermal keratinocytes, 24 hours
Procedure: as §1, §2

calgranulin A (S100A8) = assay: cDNA array, gene expression of S100A8; assay type: cell-based; settings: primary epidermal keratinocytes, 24 hours
Procedure: as §3, §2

calgranulin B (S100A9) = assay: cDNA array, gene expression of S100A9; assay type: cell-based; settings: primary epidermal keratinocytes, 24 hours
Procedure: as §3, §2

[2] = tested on: transglutaminase 1 (TGM1); assay: cDNA array, gene expression of TGM1; assay type: cell-based; settings: primary epidermal keratinocytes, 24 hours
Procedure: as §3, §2

Corneodesmosin (CDSN) = assay: cDNA array, gene expression of CDSN; assay type: cell-based; settings: primary epidermal keratinocytes, 24 hours
Procedure: as §3, §2
(§4) A second group of genes (Table 2) considered encodes for proteins which correlate with cell-cell connections. Corneodesmosin (CDSN), desmoglein 1 (DSG1), desmoplakin (DSP) and desmocollin 3 (DSC3) are tested, the associated regulation factors are shown in Table 2. […] The downregulation of this protein family is known for retinoids.

desmocollin 3 (DSC3) = assay: cDNA array, gene expression of DSC3; assay type: cell-based; settings: primary epidermal keratinocytes, 24 hours
Procedure: as §3, §2, §4

desmoglein 1 (DSG1) = assay: cDNA array, gene expression of DSG1; assay type: cell-based; settings: primary epidermal keratinocytes, 24 hours
Procedure: as §3, §2, §4

desmoplakin (DSP) = assay: cDNA array, gene expression of DSP; assay type: cell-based; settings: primary epidermal keratinocytes, 24 hours
Procedure: as §3, §2, §4

[3] = tested on: skin explants from the lower abdomen tissue; assay: Ex-vivo study on skin explants, histology; set-up: species or system human
Procedure: Histological explants having an average diameter of 10 mm from the lower abdomen tissue of a person are prepared. The pieces of tissue are stored in BEM medium in a moist, 5% CO2 atmosphere at 37° C. The tissue is divided into 3 batches of 6 explants each.
Batch K represents the negative control. Only the vehicle is applied to batch V. Batch P is treated with 4-hydroxy-6-methyl-2-pyrone Ia (1% in Mygliol/ethanol 80/20). 30 μl of the 1% substance solutions in Myliol/ethanol (80/20) are applied using a round filter paper and allowed to act for 2 hours. Applications are carried out on day 0, 1, 4, 6 and 7.
On the 8th day, 3 pieces of tissue from each batch are fixed in Bouin solution. After fixing for 48 hours, the samples are dehydrated by means of Leica TP 1020 and soaked in paraffin. Tissue sections with a thickness of 5 μm are produced from the paraffin blocks using a microtome and mounted on Superfrost specimen slides. The microscopic investigation is carried out using a Leica Orthoplan microscope after the tissue sections mounted on specimen slides have been stained with Masson-Goldner trichrome stain. In order to be able to assess the effect of the substances, the thickness of the epidermis or the change thereof is measured.

CCCCC(CC)Oc1cc(C)oc(=O)c1 (centres unmarked) [Ij, 4-(1-Ethylpentyloxy)-6-methyl-2-pyrone]
lipolytic activity, dependence on concentration (normal human adipocytes): increase the lipolytic activity as a function of concentration
stimulation of lipolysis (triacylglycerin degradation) (normal human adipocytes; 2 mM): 57%

CC(C)=CCC/C(C)=C/Cc1c(O)cc(C)oc1=O [Ii, 3-((E)-3,7-Dimethylocta-2,6-dienyl)-4-hydroxy-6-methyl-2-pyrone]
CALML5 gene expression, standardised value ([1]; 50 μM): −2.58
FLG gene expression, standardised value (filaggrin (FLG); 50 μM): −4.67
IVL gene expression, standardised value (involucrin (IVL); 50 μM): −3.82
LOR gene expression, standardised value (loricrin (LOR); 50 μM): −1.59
RPTN gene expression, standardised value (repetin (RPTN); 50 μM): 1.57
S100A8 gene expression, standardised value (calgranulin A (S100A8); 50 μM): −2.93
S100A9 gene expression, standardised value (calgranulin B (S100A9); 50 μM): −1.48
TGM1 gene expression, standardised value ([2]; 50 μM): −1.56
CDSN gene expression, regulation factor (Corneodesmosin (CDSN); 50 μM): −13.20
DSC3 gene expression, regulation factor (desmocollin 3 (DSC3); 50 μM): −1.14
DSG1 gene expression, regulation factor (desmoglein 1 (DSG1); 50 μM): −8.20
DSP gene expression, regulation factor (desmoplakin (DSP); 50 μM): −1.53
stimulation of lipolysis (triacylglycerin degradation) (normal human adipocytes; 1 mM): −60%
stimulation of lipolysis (triacylglycerin degradation) (normal human adipocytes; 2 mM): −67%

COc1cc(C)oc(=O)c1 [Ib, 4-Methoxy-6-methyl-2-pyrone]
lipolytic activity, dependence on concentration (normal human adipocytes): increase the lipolytic activity as a function of concentration
stimulation of lipolysis (triacylglycerin degradation) (normal human adipocytes; 2 mM): 82%

CC1=C(/C=C/C(C)=C/C=C/C(C)=C/C(=O)O)C(C)(C)CCC1 [all-trans retinoic acid, All-trans retinoic acid, reference compound]
CALML5 gene expression, standardised value ([1]; 5 μM): −2.93
FLG gene expression, standardised value (filaggrin (FLG); 5 μM): −3.20
IVL gene expression, standardised value (involucrin (IVL); 5 μM): −4.05
LOR gene expression, standardised value (loricrin (LOR); 5 μM): −7.01
RPTN gene expression, standardised value (repetin (RPTN); 5 μM): −2.56
S100A8 gene expression, standardised value (calgranulin A (S100A8); 5 μM): −3.26
S100A9 gene expression, standardised value (calgranulin B (S100A9); 5 μM): −3.49
TGM1 gene expression, standardised value ([2]; 5 μM): −3.56
CDSN gene expression, regulation factor (Corneodesmosin (CDSN); concentration not given): −2.37
DSC3 gene expression, regulation factor (desmocollin 3 (DSC3); concentration not given): −1.23
DSG1 gene expression, regulation factor (desmoglein 1 (DSG1); concentration not given): −9.22
DSP gene expression, regulation factor (desmoplakin (DSP); concentration not given): −1.56

Cc1cc(O)cc(=O)o1 [Ia, 4-hydroxy-6-methyl-2-pyrone]
CALML5 gene expression, standardised value ([1]; 40 μM): −3.14
FLG gene expression, standardised value (filaggrin (FLG); 40 μM): 1.01
IVL gene expression, standardised value (involucrin (IVL); 40 μM): −1.76
LOR gene expression, standardised value (loricrin (LOR); 40 μM): −4.56
RPTN gene expression, standardised value (repetin (RPTN); 40 μM): −3.33
S100A8 gene expression, standardised value (calgranulin A (S100A8); 40 μM): −1.74
S100A9 gene expression, standardised value (calgranulin B (S100A9); 40 μM): −2.18
TGM1 gene expression, standardised value ([2]; 40 μM): −1.26
CDSN gene expression, regulation factor (Corneodesmosin (CDSN); 40 μM): −2.14
DSC3 gene expression, regulation factor (desmocollin 3 (DSC3); 40 μM): −1.69
DSG1 gene expression, regulation factor (desmoglein 1 (DSG1); 40 μM): −1.39
DSP gene expression, regulation factor (desmoplakin (DSP); 40 μM): −1.40
collagen network in the dermis along the dermo-epidermal junction zone ([3]; 1% in Mygliol/ethanol 80/20, topical on day 0, 1, 4, 6 and 7, day 8): becomes denser
thicker epidermis compared with the vehicle ([3]; 1% in Mygliol/ethanol 80/20, topical on day 0, 1, 4, 6 and 7, measured on the 8th day): 10%
